Laboratory results from patent US8173668B1 (Alcon Research, Ltd., priority 2007, dated 2012).

Columns and labels:
[1] = tested on: Human trabecular meshwork (TM) cells; experiment: PGE2 production (RIA) in human trabecular meshwork cells; format: cell-based; conditions: 1 h at 37° C., BK 100 nM or 1 μM, fluprostenol 1 μM, non-peptide agonists 1 μM or 10 μM, FIG. 6
Description: The ability of BK agonists to stimulate prostaglandin E2 (PGE2) production was examined as follows. Human trabecular meshwork (TM) cells were seeded in culture plates and allowed to reach confluence. […] Fluprostenol was used as a positive control. After this time the assay was terminated by placing the assay plates on ice and by the addition of 100 μL of a cell-lysis reagent supplied with the PGE2 radioimmunoassay (RIA) kit (Amersham Pharmacia Biotech, Arlington Heights, Ill.). All reagents and standards supplied in the RIA kit were prepared and the RIA performed according to the manufacturer's instructions. Assay buffer, diluted prostaglandin E2 (PGE2) standard and supernatant from the cell-based experiment (diluted 1:100 v/v) were then pipetted into appropriate tubes as specified in the kit instructions. […]
After this incubation, all tubes were placed in an ice-bath and 1 ml cold precipitating reagent supplied in the kit was added to the tubes, the content mixed and incubated for 25 min at 4° C. […] The supernatants of all tubes were decanted as specified in the kit instructions and the RIA samples analyzed on a gamma-counter. The levels of PGE2 generated by the test agent were then quantified in comparison with the PGE2-standard curve. Dose-response data for the test agent were constructed and the potency and intrinsic activity determined as described above for other assays.

[2] = molecular target: T1, B2-receptors in h-NPE cells (Homo sapiens, UniProt P30411); experiment: [Ca2+]i mobilization (FLIPR) in h-NPE cells, agonist mode; format: cell-based; conditions: h-NPE cells, mean ± SEM
T1 construct: B2-receptor proteins in h-TM, h-CM and h-NPE cells; endogenous in cells; host or cells: human trabecular meshwork (h-TM), human ciliary muscle (h-CM) and human non-pigmented ciliary epithelial (h-NPE) cells
T1 sequence (P30411 1-391): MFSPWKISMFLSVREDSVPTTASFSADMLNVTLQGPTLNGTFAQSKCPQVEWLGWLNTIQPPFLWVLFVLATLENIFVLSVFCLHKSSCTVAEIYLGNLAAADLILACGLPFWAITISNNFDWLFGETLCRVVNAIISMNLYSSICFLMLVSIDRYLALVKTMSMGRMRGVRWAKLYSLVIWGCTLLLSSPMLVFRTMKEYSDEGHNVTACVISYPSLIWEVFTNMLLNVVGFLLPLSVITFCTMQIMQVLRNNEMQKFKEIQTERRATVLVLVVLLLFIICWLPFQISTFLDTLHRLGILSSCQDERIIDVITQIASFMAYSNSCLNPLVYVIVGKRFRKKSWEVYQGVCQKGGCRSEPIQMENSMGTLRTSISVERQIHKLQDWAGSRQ
Description: On the day of the experiment, one vial of FLIPR Calcium Assay Kit dye is re-suspended in 50 mL of a FLIPR buffer consisting of Hank's Balanced Salt Solution (HBSS), 20 mM HEPES, and 2.5 mM probenecid, pH 7.4. Cells are loaded with the calcium-sensitive dye by addition of an equal volume (50 μL) to each well of the 96-well plate and incubated with dye for 1 h at 23° C. After this time, the test compound plate and cell plate are placed in the FLIPR instrument. At the beginning of an experimental run, a signal test is performed to check the basal fluorescence signal from the dye-loaded cells and the uniformity of the signal across the plate. The basal fluorescence is adjusted between 8000-12000 counts by modifying the exposure time, the camera F-stop, or the laser power. Instrument settings for a typical assay are the following: laser power 0.3-0.6 W, camera F-stop F/2, and exposure time 0.4 sec.
Fluorescence data are collected in real-time at 1.0 sec intervals for the first 60 secs and at 6.0 sec intervals for an additional 120 secs. […] The data are then analyzed using an automated, iterative, sigmoidal curve-fitting computer program to obtain the potency and intrinsic activities of the test agents as previously described (Sharif et al. J. Pharmacol. Exp. Ther. 286: 1094-1102, 1998; Sharif et al. Invest. Ophthalmol. Vis. Sci. 39:2562-2571, 1998; Kelly et al. J. Pharmacol. Exp. Ther. 304: 238-245, 2003). The sources of materials and reagents for such assays can be found in the references cited above.

cats = experiment: IOP-lowering activity in cats; format: in vivo
Source text: (§1) Some obvious drawbacks and reasons for the lack of consistent observations noted above are probably related to species differences in the effects of BK on IOP changes and on the fact that BK is a labile peptide that can easily and rapidly be inactivated by kininases and other proteases when it comes into contact with body fluids (Hall, Pharmacol. Ther., 56, 131-190, 1992). Additionally, topical ocular administration of peptides such as BK are confounded by the potential lack of or little bioavailability through the cornea to reach the anterior segment of the eye. […] This is probably related to the attainment of a relevant concentration in the aqueous humor and ciliary body when the compound was administered topical ocularly.

guinea pigs = experiment: IOP-lowering activity in guinea pigs; format: in vivo
Source text: as §1

[3] = tested on: anterior eye segments of pig eyes; experiment: Outflow facility in perfused anterior eye segments; conditions: 1 μM, perfused porcine anterior eye segments, n=5; FIG. 8
Description: Anterior eye segments obtained from postmortem porcine eyes were used to study the effects of non-peptide agonists on fluid outflow through the trabecular meshwork and Schlemms' canal (Erickson-Lamey et al., Curr. Eye Res. 7: 799-807, 1988; Vaajanen et al. J. Ocular Pharmacol. Ther. 23: 124-131, 2007). The postmortem eyes were placed in DMEM containing 50 U/ml penicillin, 50 μg/mL streptomycin, and 5 μg/mL amphotericin B prior to dissection under sterile conditions. Eyes were bisected at the to equator and the anterior chamber transferred to a petri dish. The lens was removed and the remaining choroid, iris, and ciliary body gently teased away. […] Perfusion pressure for standard perfusion was maintained at a constant level of 10 mmHg, and rate of fluid outflow monitored continuously (i.e. by means of a Model ACCU 124 analytical balance; Fisher Scientific, Pittsburgh, Pa.) throughout the experiment. The rate of fluid flow was recorded by a computer utilizing Collect XL software (Lab Tronics, Inc; Guelph, Ontario, Canada). Outflow facility was calculated as the ratio of flow rate to perfusion pressure (μL/min/mmHg).
Preparations were allowed to stabilize overnight (14-16 hr), and baseline facilities were then recorded for 40-60 min. […]

With `CNC(=O)c1ccc(/C=C/C(=O)NCC(=O)N(C)c2ccc(Cl)c(COc3cccc4c(OCc5ccccn5)cc(C)nc34)c2Cl)cc1` [FR-190997] the “production of endogenous prostaglandins (PGE2)” value [1] was “stimulated production of endogenous prostaglandins”, the Emax ([2]; read-out: Intrinsic Activity (Emax, % max relative to BK)) was 32% and the EC50 ([2]; read-out: Potency (EC50), [Ca2+]i mobilization) was 384 ± 39 nM. The “ability to lower IOP” value (cats) was “unable to lower IOP”, the “ability to lower IOP” value (guinea pigs) was “unable to lower IOP” and the outflow facility [3] was “increased the outflow facility flow”.
